Test results taken from US20250230193A1, “CYCLIC COMPOUND HAVING SELECTIVE KRAS INHIBITORY EFFECT ON HRAS AND NRAS” (CHUGAI SEIYAKU KABUSHIKI KAISHA, priority 2022, published 2025).

How the values were obtained:
[1] = biological target: GDP-bound NRAS wild-type protein (Homo sapiens, UniProt P01111); test: Binding to NRAS by surface plasmon resonance (SPR), Single Cycle Kinetics; conditions: for NRAS/KRAS (ratio of KD value for NRAS to KD value for KRAS) / NRAS/KRAS (ratio of KD value with respect to NRAS to KD value with respect to KRAS): GDP-bound NRAS wild-type vs GDP-bound KRAS wild-type
GDP-bound NRAS wild-type protein, sequence (P01111 whole entry): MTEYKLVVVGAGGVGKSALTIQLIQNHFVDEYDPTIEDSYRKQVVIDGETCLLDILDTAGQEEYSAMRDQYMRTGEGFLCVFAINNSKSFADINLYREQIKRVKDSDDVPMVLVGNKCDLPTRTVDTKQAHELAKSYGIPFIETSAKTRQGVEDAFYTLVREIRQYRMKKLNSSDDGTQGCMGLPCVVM

[2] = biological target: GDP-bound HRAS wild-type protein (Homo sapiens, UniProt P01112); test: Binding to HRAS by surface plasmon resonance (SPR), Single Cycle Kinetics; conditions: for HRAS/KRAS (ratio of KD value for HRAS to KD value for KRAS) / HRAS/KRAS (ratio of KD value with respect to HRAS to KD value with respect to KRAS): GDP-bound HRAS wild-type vs GDP-bound KRAS wild-type
GDP-bound HRAS wild-type protein, sequence (P01112 whole entry): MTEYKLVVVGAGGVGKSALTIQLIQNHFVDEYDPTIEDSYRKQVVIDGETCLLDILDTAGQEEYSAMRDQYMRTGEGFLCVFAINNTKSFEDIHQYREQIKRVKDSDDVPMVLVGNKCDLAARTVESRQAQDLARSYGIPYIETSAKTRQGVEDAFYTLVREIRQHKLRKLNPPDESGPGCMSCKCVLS

[3] = SPR, GDP-bound wild-type proteins

Q: With CC[C@H](C)[C@@H]1NC(=O)[C@H](CC)N(C)C(=O)C[C@@H](C(=O)N2CCOCC2)N(C)C(=O)[C@H](C2CCCC2)N(C)C(=O)C2(CCCC2)NC(=O)[C@@H]2CCCN2C(=O)[C@H](CCc2cc(F)c(C(F)(F)F)c(F)c2)NC(=O)CN(C)C(=O)[C@H](Cc2ccc(C(F)(F)F)cc2)N2CCCCC[C@@H](C2=O)N(C)C(=O)CN(C)C1=O [PP0488] as the compound, how does the “NRAS/KRAS (ratio of KD value with respect to GDP-bound NRAS wild-type protein to KD value with respect to KRAS)” value ([1]; SPR) read?
A: A (a compound having 10 or more and less than 20 is denoted as A)

Q: And the “HRAS/KRAS (ratio of KD value with respect to GDP-bound HRAS wild-type protein to KD value with respect to KRAS)” value ([2]; SPR)?
A: B (a compound having 3 or more and less than 10 is denoted as B)

Q: For CCO[C@@H]1C[C@H]2C(=O)NC3(CC=CC3)C(=O)N(C)[C@@H](C3CCCC3)C(=O)N(C)[C@H](C(=O)N3CCOCC3)CC(=O)N(C)[C@@H](CC(C)C)C(=O)N[C@@H]([C@@H](C)CC)C(=O)N(C)CC(=O)N(C)[C@H]3CCCCCN(C3=O)[C@@H](Cc3ccc(C(F)(F)F)cc3)C(=O)N(C)CC(=O)N[C@@H](CCc3cc(F)c(C(F)(F)F)c(F)c3)C(=O)N2C1 [PP0727], which “NRAS/KRAS (ratio of KD value with respect to GDP-bound NRAS wild-type protein to KD value with respect to KRAS)” value ([1]; SPR) is on record?
A: B (a compound having 3 or more and less than 10 is denoted as B)

Q: And the “HRAS/KRAS (ratio of KD value with respect to GDP-bound HRAS wild-type protein to KD value with respect to KRAS)” value ([2]; SPR)?
A: B (a compound having 3 or more and less than 10 is denoted as B)

Q: Which results are given for CCO[C@@H]1C[C@H]2C(=O)NC3(CCC3)C(=O)N(C)[C@@H](C3CCCC3)C(=O)N(CCC3CCC3)[C@H](C(=O)N3CCOCC3)CC(=O)N(C)[C@@H](CC(C)C)C(=O)N[C@@H]([C@@H](C)CC)C(=O)N(C)CC(=O)N(C)[C@H]3CCCCN(C3=O)[C@@H](Cc3ccc(C(F)(F)F)cc3)C(=O)N(C)CC(=O)N[C@@H](CCc3cc(F)c(C(F)(F)F)c(F)c3)C(=O)N2C1 [PP0650]?
A: NRAS/KRAS (ratio of KD value with respect to GDP-bound NRAS wild-type protein to KD value with respect to KRAS) ([1]; SPR): C (A compound having a KD ratio of 0.1 or more and less than 3 is denoted as C); HRAS/KRAS (ratio of KD value with respect to GDP-bound HRAS wild-type protein to KD value with respect to KRAS) ([2]; SPR): B (a compound having 3 or more and less than 10 is denoted as B)

Q: With CCCO[C@@H]1C[C@H]2C(=O)NC3(CC(C)(C)C3)C(=O)N(C)[C@@H](C3CCCC3)C(=O)N(C)[C@H](C(=O)N(C)C)CC(=O)N(C)[C@H]3CCCCc4ccc(cc4)C[C@@H](C(=O)N(C)CC(=O)N[C@@H](CCc4ccc(C(F)(F)F)c(OC)c4)C(=O)N2C1)N1CC/C=C\C[C@@H](C1=O)N(C)C(=O)CN(C)C(=O)[C@H]([C@@H](C)CC)NC3=O [PP3077] as the compound, how does the “NRAS/KRAS (ratio of KD value with respect to GDP-bound NRAS wild-type protein to KD value with respect to KRAS)” value [1, 3] read?
A: A (a compound having 10 or more and less than 20 is denoted as A)

Q: What about the “HRAS/KRAS (ratio of KD value with respect to GDP-bound HRAS wild-type protein to KD value with respect to KRAS)” value [2, 3] of the same compound?
A: B (a compound having 3 or more and less than 10 is denoted as B)

Q: CCC[C@H]1C(=O)N[C@@H]([C@@H](C)CC)C(=O)N(C)CC(=O)N(C)[C@H]2C/C=C\CCN(C2=O)[C@@H](Cc2ccc(C)cc2)C(=O)N(C)CC(=O)N[C@@H](CCc2ccc(Cl)c(Cl)c2)C(=O)N2C[C@H](OCC)C[C@H]2C(=O)NC2(CC(C)(C)C2)C(=O)N(C)[C@@H](CC2CC2)C(=O)N(C)[C@H](C(=O)N(C)C)CC(=O)N1C [PP2799] was tested. Which “NRAS/KRAS (ratio of KD value with respect to GDP-bound NRAS wild-type protein to KD value with respect to KRAS)” value ([1]; class symbols) did it give?
A: A (a compound having 10 or more and less than 20 is denoted as A)

Q: And the “HRAS/KRAS (ratio of KD value with respect to GDP-bound HRAS wild-type protein to KD value with respect to KRAS)” value ([2]; class symbols)?
A: A (a compound having 10 or more and less than 20 is denoted as A)

Q: Which “NRAS/KRAS (ratio of KD value for NRAS to KD value for KRAS)” value ([1]; KD ratio, SPR) does the source give for CCO[C@@H]1C[C@H]2C(=O)N(C)C3(CCC3)C(=O)N(C)[C@@H](C3CCCC3)C(=O)N(C)[C@H](C(=O)N(C)C)CC(=O)N(C)[C@@H](CC)C(=O)N[C@@H]([C@@H](C)CC)C(=O)N(C)CC(=O)N(C)[C@H]3C/C=C\CCN(C3=O)[C@@H](Cc3ccc(C)cc3)C(=O)N(C)CC(=O)N[C@@H](CCc3cc(F)c(C(F)(F)F)c(F)c3)C(=O)N2C1 [PP1781] here?
A: A (a compound having 10 or more and less than 20 is denoted as A)

Q: And the “HRAS/KRAS (ratio of KD value for HRAS to KD value for KRAS)” value ([2]; KD ratio, SPR)?
A: B (a compound having 3 or more and less than 10 is denoted as B)

Q: CCCC[C@H]1C(=O)N[C@@H]([C@@H](C)CC)C(=O)N(C)CC(=O)N(C)[C@H]2C/C=C\CCN(C2=O)[C@@H](Cc2ccc(C(F)(F)F)cc2)C(=O)N(C)CC(=O)N[C@@H](CCc2cc(F)c(C(F)(F)F)c(F)c2)C(=O)N2C[C@H](OCC)C[C@H]2C(=O)NC2(CC(F)(F)C2)C(=O)N(C)[C@@H](C2CCCC2)C(=O)N(C)[C@H](C(=O)N(C)C)CC(=O)N1C [PP1740] was tested. Which “NRAS/KRAS (ratio of KD value for NRAS to KD value for KRAS)” value ([1]; KD ratio, SPR) did it give?
A: A (a compound having 10 or more and less than 20 is denoted as A)

Q: And the “HRAS/KRAS (ratio of KD value for HRAS to KD value for KRAS)” value ([2]; KD ratio, SPR)?
A: A (a compound having 10 or more and less than 20 is denoted as A)

Q: How did the “NRAS/KRAS (ratio of KD value with respect to GDP-bound NRAS wild-type protein to KD value with respect to KRAS)” value ([1]; class symbols) turn out when CCCOC[C@H]1C(=O)N[C@@H]([C@@H](C)CC)C(=O)N(C)CC(=O)N(C)[C@H]2C/C=C\CCN(C2=O)[C@@H](Cc2ccc(C)cc2)C(=O)N(C)CC(=O)N[C@@H](CCc2ccc(C(F)(F)F)c(OC)c2)C(=O)N2C[C@H](OCC)C[C@H]2C(=O)NC2(CC(C)(C)C2)C(=O)N(C)[C@@H](CC(C)(C)C)C(=O)N(C)[C@H](C(=O)N(C)C)CC(=O)N1C [PP2712] was run?
A: A (a compound having 10 or more and less than 20 is denoted as A)

Q: What about the “HRAS/KRAS (ratio of KD value with respect to GDP-bound HRAS wild-type protein to KD value with respect to KRAS)” value ([2]; class symbols) of the same compound?
A: B (a compound having 3 or more and less than 10 is denoted as B)

Q: With CCC[C@H]1C(=O)N[C@@H]([C@@H](C)CC)C(=O)N(C2CC2)CC(=O)N(C)[C@H]2C/C=C\CCN(C2=O)[C@@H](Cc2ccc(C)cc2)C(=O)N(C)CC(=O)N[C@@H](CCc2ccc(C(F)(F)F)c(OC)c2)C(=O)N2C[C@H](OCC)C[C@H]2C(=O)N(C)C2(CCC2)C(=O)N(C)[C@@H](C2CCCC2)C(=O)N(C)[C@H](C(=O)N(C)C)CC(=O)N1C [PP2328, (2S,8S,12R,14S,20S,23S,27S,30S,36S,38Z)-20-cyclopentyl-32-cyclopropyl-12-ethoxy-8-[2-[3-methoxy-4-(trifluoromethyl)phenyl]ethyl]-N,N,4,16,19,22,26,35-octamethyl-30-[(1S)-1-methylpropyl]-3,6,9,15,18,21,25,28,31,34,42-undecaoxo-27-propyl-2-(p-tolylmethyl)spiro[1,4,7,10,16,19,22,26,29,32,35-undecazatricyclo[34.5.1.0^10,14]dotetracont-38-ene-17,1′-cyclobutane]-23-carboxamide] as the compound, how does the “NRAS/KRAS (ratio of KD value with respect to NRAS to KD value with respect to KRAS)” value ([1]; SPR) read?
A: A (a compound having 10 or more and less than 20 is denoted as A)

Q: What about the “HRAS/KRAS (ratio of KD value with respect to HRAS to KD value with respect to KRAS)” value ([2]; SPR) of the same compound?
A: A (a compound having 10 or more and less than 20 is denoted as A)

Q: Which results are given for CCO[C@@H]1C[C@H]2C(=O)NC3(CCC3)C(=O)N(C)[C@@H](C3CCCC3)C(=O)N(C)[C@H](C(=O)N3CCOCC3)CC(=O)N(C)[C@@H](CC(C)C)C(=O)N[C@@H]([C@@H](C)CC)C(=O)N(C)CC(=O)N(C)[C@H]3CCCCCN(C3=O)[C@@H](Cc3ccc4sccc4c3)C(=O)N(C)CC(=O)N[C@@H](CCc3cc(F)c(C(F)(F)F)c(F)c3)C(=O)N2C1 [PP0920]?
A: NRAS/KRAS (ratio of KD value with respect to NRAS to KD value with respect to KRAS) ([1]; KD ratio, SPR): B (a compound having 3 or more and less than 10 is denoted as B); HRAS/KRAS (ratio of KD value with respect to HRAS to KD value with respect to KRAS) ([2]; KD ratio, SPR): B (a compound having 3 or more and less than 10 is denoted as B)

Q: CCO[C@@H]1C[C@H]2C(=O)NC3(CCC3)C(=O)N(C)[C@@H](C3CCCC3)C(=O)N(C)[C@H](C(=O)N(C)C)CC(=O)N(C)[C@@H](CC3CCCC3)C(=O)N[C@@H]([C@@H](C)CC)C(=O)N(C)CC(=O)N(C)[C@H]3C/C=C\CCN(C3=O)[C@@H](Cc3ccc(C)cc3)C(=O)N(C)CC(=O)N[C@@H](CCc3cc(Cl)c(C(F)(F)F)c(Cl)c3)C(=O)N2C1 [PP2679] was tested. Which “NRAS/KRAS (ratio of KD value with respect to GDP-bound NRAS wild-type protein to KD value with respect to KRAS)” value ([1]; class symbols) did it give?
A: A (a compound having 10 or more and less than 20 is denoted as A)

Q: And the “HRAS/KRAS (ratio of KD value with respect to GDP-bound HRAS wild-type protein to KD value with respect to KRAS)” value ([2]; class symbols)?
A: A (a compound having 10 or more and less than 20 is denoted as A)
